Test results reported in ChEMBL document CHEMBL3217594, “Structureactivity relationships of methyl-lysine reader antagonists” (Medchemcomm, 2012).
The source made the active and inactive calls. No cut-off for these calls is given here.

How the values were obtained:
[1] = target: T1, Chromobox protein homolog 7 (Homo sapiens, UniProt O95931); assay: Antagonist activity at Flag-tagged CBX7 (unknown origin) assessed as inhibition of CBX7/biotinylated H3K9Me3 peptide interaction after 30 mins by AlphaScreen assay
T1 sequence (O95931 whole entry): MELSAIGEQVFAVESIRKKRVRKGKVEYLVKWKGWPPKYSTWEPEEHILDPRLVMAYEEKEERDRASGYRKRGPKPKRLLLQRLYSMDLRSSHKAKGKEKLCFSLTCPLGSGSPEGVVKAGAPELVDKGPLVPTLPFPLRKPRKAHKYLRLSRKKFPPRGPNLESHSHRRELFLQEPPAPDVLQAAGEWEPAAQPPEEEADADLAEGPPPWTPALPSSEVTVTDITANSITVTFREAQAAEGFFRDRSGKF

[2] = target: T2, Chromobox protein homolog 7 (Homo sapiens) (UniProt O95931); assay: Antagonist activity at Flag-tagged CBX7 (unknown origin) assessed as inhibition of CBX7/biotinylated H3K9Me3 peptide interaction at 30 uM after 30 mins by AlphaScreen assay
T2 sequence (whole entry): T1 sequence (O95931 whole entry)

[3] = target: T3, Lethal(3)malignant brain tumor-like protein 4 (Homo sapiens, UniProt Q8NA19); assay: Antagonist activity at L3MBTL4 (unknown origin) assessed as inhibition of L3MBTL4/biotinylated H2AK36Me1 peptide interaction after 30 mins by AlphaScreen assay
T3 sequence (Q8NA19 whole entry): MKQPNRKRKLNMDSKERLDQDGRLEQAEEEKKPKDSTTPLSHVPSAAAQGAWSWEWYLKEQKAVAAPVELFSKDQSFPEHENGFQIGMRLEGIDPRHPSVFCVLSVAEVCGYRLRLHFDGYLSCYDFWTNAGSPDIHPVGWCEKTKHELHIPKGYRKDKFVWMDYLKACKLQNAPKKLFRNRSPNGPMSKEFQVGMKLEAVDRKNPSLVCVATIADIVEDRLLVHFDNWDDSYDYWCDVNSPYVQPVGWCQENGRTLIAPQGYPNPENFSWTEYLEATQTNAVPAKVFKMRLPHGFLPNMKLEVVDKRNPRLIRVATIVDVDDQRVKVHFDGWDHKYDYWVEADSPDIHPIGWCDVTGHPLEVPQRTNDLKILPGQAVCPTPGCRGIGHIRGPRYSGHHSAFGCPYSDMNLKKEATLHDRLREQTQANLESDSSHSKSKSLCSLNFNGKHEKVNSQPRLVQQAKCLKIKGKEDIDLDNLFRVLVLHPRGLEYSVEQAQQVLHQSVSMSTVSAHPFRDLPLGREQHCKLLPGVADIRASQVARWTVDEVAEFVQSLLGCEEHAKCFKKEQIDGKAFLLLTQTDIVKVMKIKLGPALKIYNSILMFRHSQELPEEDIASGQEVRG

[4] = target: MBT domain-containing protein 1 (Homo sapiens, UniProt Q05BQ5); assay: Antagonist activity at MBTD1 (unknown origin) assessed as inhibition of MBTD1/biotinylated H4K20Me1 peptide interaction after 30 mins by AlphaScreen assay
Chain of MBT domain-containing protein 1 (Q05BQ5 whole entry, the tested form may be a part): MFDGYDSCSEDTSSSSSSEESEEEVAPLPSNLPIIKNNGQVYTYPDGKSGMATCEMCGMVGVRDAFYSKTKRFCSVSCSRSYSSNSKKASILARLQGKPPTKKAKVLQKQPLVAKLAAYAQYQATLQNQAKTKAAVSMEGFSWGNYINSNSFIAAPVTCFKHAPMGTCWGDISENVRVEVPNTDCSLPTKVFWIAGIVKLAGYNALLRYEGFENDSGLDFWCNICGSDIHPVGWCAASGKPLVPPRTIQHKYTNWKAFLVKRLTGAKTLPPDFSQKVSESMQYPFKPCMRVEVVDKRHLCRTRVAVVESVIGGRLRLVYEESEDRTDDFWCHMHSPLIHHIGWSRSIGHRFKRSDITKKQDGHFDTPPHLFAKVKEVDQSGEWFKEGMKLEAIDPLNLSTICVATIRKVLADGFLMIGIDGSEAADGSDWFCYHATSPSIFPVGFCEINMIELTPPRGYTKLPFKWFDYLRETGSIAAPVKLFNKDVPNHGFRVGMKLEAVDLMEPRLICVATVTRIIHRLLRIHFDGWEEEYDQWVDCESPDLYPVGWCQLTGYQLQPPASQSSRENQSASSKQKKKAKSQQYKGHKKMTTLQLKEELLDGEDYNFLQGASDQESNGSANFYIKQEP

[5] = target: T4, Scm-like with four MBT domains protein 1 (Homo sapiens, UniProt Q9UHJ3); assay: Antagonist activity at SFMBT1 (unknown origin) assessed as inhibition of SFMBT1/biotinylated H3K9Me1 peptide interaction after 30 mins by AlphaScreen assay
T4 sequence (Q9UHJ3 whole entry): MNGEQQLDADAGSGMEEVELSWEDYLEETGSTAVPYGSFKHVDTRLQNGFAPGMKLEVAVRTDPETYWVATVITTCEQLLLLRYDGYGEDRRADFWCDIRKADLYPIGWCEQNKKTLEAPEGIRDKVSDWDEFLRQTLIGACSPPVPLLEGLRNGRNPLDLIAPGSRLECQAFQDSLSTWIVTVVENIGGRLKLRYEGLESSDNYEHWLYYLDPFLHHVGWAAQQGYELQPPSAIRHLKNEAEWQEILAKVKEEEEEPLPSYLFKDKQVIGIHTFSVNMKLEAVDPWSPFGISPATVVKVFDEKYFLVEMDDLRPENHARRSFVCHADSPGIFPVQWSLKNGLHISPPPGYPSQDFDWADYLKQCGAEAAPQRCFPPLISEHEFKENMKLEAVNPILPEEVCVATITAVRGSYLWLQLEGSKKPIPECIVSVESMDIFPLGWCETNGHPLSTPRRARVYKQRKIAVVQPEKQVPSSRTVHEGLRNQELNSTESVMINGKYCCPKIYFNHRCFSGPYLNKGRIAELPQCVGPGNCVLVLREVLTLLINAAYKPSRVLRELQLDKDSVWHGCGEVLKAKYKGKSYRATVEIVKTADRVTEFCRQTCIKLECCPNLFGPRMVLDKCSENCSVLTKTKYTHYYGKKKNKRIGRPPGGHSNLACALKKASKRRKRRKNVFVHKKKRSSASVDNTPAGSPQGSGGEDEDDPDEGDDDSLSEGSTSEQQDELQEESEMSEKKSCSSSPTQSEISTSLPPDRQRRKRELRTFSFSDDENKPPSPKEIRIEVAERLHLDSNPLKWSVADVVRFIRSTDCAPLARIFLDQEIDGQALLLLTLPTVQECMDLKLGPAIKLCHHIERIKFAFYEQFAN

[6] = target: T5, Lethal(3)malignant brain tumor-like protein 1 (Homo sapiens) (UniProt Q9Y468); details: Plus RIL, 30 uM
T5 sequence (whole entry): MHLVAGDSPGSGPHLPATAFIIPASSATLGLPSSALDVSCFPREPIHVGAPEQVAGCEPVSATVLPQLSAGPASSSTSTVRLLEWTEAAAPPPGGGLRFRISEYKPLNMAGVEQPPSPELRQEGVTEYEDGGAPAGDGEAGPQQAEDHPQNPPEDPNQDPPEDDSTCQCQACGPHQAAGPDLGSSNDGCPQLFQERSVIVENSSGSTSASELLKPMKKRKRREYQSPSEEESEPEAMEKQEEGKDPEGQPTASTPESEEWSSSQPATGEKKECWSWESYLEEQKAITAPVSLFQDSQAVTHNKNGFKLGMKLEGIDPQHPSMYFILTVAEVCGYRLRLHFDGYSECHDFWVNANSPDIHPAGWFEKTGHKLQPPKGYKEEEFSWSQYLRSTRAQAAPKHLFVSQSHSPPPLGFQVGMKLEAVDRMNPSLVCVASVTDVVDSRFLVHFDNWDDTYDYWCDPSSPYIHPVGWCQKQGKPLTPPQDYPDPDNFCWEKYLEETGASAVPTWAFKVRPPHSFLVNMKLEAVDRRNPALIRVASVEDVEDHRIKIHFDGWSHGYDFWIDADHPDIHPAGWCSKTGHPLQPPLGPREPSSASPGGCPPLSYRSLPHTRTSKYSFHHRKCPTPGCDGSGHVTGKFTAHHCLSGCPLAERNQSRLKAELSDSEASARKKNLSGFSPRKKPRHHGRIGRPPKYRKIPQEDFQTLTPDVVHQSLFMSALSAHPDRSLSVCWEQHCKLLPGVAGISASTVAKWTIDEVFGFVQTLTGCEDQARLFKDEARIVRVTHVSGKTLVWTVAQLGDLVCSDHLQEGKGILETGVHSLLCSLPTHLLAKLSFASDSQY

Row | SMILES | IC50 [1] [µM] | inhibition [2] | IC50 [3] [µM] | IC50 [4] [µM] | IC50 [5] [µM] | inhibition [6]
1 | CN1CCCC1C1CCN(C(=O)c2cccc(Br)c2)CC1 (centres undefined) | > 30 | inactive | > 30 | > 30 | > 30 | 3%
2 | CN(C)C1CCN(C(=O)c2cccc(Br)c2)CC1 | > 30 | inactive | > 30 | > 30 | > 30 | 5%
3 | O=C(c1cccc(Br)c1)N1CCN(C2CCCC2)CC1 | > 30 | 1% | > 30 | > 30 | > 30 | inactive
4 | CC1CCCN1C1CCN(C(=O)c2cccc(Br)c2)CC1 (centres undefined) | > 30 | inactive | > 30 | > 30 | > 30 | 6%
5 | CNC1CCN(C(=O)c2cccc(Br)c2)CC1 | > 30 | 3% | > 30 | > 30 | > 30 | inactive
6 | O=C(c1cccc(Br)c1)N1CCC(N2CCCC2)C1 (centres undefined) | > 30 | 4% | > 30 | > 30 | > 30 | 18%
7 | O=S(=O)(c1cccc(Br)c1)N1CCC(N2CCCC2)CC1 | > 30 | inactive | > 30 | 21.9 | > 30 | 48%
8 | O=C(c1cccc(Br)c1)N1CCC(N2CCCCC2)CC1 | > 30 | 3% | > 30 | 29.7 | > 30 | 5%
9 | CC(c1cccc(Br)c1)N1CCC(N2CCCC2)CC1 (racemic) | > 30 | inactive | > 30 | 9 | > 30 | 25%
10 | C[N+]1(C2CCN(C(=O)c3cccc(Br)c3)CC2)CCCC1 | > 30 | 17% | > 30 | > 30 | > 30 | inactive
11 | O=C(c1cccc(Br)c1)N1CCC(N2CCC2)CC1 | > 30 | 11% | > 30 | > 30 | > 30 | 32%
12 | O=C(O)c1cccc(C(=O)N2CCC(N3CCCC3)CC2)c1 | > 30 | 4% | > 30 | > 30 | > 30 | 31%
13 | O=C(c1cccc(Br)c1)N1CCC(N2CCCC2)CC1 | > 30 | 11% | 15.6 | > 30 | > 30 | –
14 | Brc1cccc(CN2CCC(N3CCCC3)CC2)c1 | > 30 | inactive | > 30 | 18.6 | > 30 | 20%
15 | O=C(c1cccc(Br)c1)N1CCC(C2CCCN2)CC1 (centres undefined) | > 30 | inactive | > 30 | 9.2 | > 30 | 6%
